From PMC10763615, “Identification and engineering of potent cyclic peptides with selective or promiscuous binding through biochemical profiling and bioinformatic data analysis” (RSC Chemical Biology, 2023)
Like-named read-outs stand apart in the source and are kept apart here. One block for each molecule: values may come before it.

Key:
[1] = target: T1, FGFR1c/KLB (Fc-fused human FGF-R1alpha(IIIc) with beta-klotho) (Homo sapiens, UniProt P11362); assay: AlphaScreen FGF21 competitive binding assay; conditions: read-out: IC50 values for controls (FGF-R1C); positive controls, Alphascreen vs biotinylated FGF21
T1 sequence (P11362 22-376 limits assumed): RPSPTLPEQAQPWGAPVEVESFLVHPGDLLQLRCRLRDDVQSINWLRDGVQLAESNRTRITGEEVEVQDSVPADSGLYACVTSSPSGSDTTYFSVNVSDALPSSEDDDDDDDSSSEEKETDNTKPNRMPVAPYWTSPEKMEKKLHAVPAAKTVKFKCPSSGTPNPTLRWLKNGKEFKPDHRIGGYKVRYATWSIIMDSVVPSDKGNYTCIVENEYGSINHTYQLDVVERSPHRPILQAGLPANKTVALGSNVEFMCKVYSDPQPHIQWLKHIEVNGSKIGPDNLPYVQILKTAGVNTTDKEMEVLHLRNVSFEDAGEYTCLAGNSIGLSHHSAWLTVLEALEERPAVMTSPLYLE
Description: Alphascreen binding assay
(§2) The competitive binding assay was carried out according to the methods detailed in Hansen. et al using
(§3) AlphaScreen.3 All reagents and samples were prepared in assay buffer: 40mM Hepes, 140mM NaCl, 1mM
(§4) CaCl2, 0,05% Tween20, pH=7.5, 0.1% BSA. In brief, recombinant human beta-klotho (R&D Systems) was
(§5) preincubated for 60 min with the ectodomain, either Fc-fused human FGF-R1alpha(IIIc), FGF-R3alpha(IIIc)
(§6) or FGF-R4 (R&D Systems), and the mixture was added to the test peptides in OptiPlate™ (PerkinElmer).
(§7) Biotinylated FGF21 and heparin were further added to each well. AlphaScreen bead mix (1:1 mix of Protein
(§8) A acceptor beads/ streptavidin-coated donor beads, PerkinElmer) were added to each well incubated
(§9) overnight at RT in the dark, and measured on a plate reader (Envision). Assays were carried out in triplicates
(§10) with concentrations ranging from 3, 10, 30, 100, 300 ,1000 and 3000 nM of peptide. No peptide control
(§11) (media only) was used as a negative control, and unlabeled FGF21 and FGF1 as positive control.
(§12) competing with biotinylated natural FGF21 ligand.

[2] = target: T2, FGFR4/KLB (Fc-fused human FGF-R4 with beta-klotho) (Homo sapiens, UniProt P22455); assay: AlphaScreen FGF21 competitive binding assay
T2 sequence (P22455 22-369 limits assumed): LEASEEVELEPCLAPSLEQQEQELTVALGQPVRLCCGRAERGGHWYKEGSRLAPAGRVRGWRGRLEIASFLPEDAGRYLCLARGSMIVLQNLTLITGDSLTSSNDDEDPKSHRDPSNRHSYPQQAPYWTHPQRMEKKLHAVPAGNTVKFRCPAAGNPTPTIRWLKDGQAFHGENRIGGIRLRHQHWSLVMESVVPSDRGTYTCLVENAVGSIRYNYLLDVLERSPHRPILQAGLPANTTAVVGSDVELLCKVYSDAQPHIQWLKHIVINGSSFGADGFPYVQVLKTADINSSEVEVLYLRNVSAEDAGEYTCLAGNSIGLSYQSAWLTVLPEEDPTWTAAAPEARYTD
Description: Alphascreen binding assay
as §2, §3, §4, §5, §6, §7, §8, §9, §10, §11, §12

[3] = target: T3, FGFR3c/BKL (Fc-fused human FGF-R3alpha(IIIc) with beta-klotho) (Homo sapiens, UniProt P22607); assay: AlphaScreen FGF21 competitive binding assay; conditions: read-out: IC50 values for controls (FGF-R3C); positive controls, Alphascreen vs biotinylated FGF21
T3 sequence (P22607 23-375 limits assumed): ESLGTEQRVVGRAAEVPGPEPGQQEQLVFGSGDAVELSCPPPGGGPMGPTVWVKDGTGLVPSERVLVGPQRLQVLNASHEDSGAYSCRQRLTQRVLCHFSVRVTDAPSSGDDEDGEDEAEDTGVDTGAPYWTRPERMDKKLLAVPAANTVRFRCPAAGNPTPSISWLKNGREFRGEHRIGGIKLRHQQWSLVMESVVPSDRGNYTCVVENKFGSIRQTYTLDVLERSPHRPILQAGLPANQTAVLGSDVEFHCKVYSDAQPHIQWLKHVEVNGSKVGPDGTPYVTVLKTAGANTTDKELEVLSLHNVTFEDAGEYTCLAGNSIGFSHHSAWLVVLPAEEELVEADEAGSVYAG

[4] = target: T4, FGF-R4 ECD (Homo sapiens, UniProt P22455); assay: single concentration BLI of crude peptides; format: binding; conditions: read-out: KD (4)
T4 construct: DNA constructs for the extracellular domain (ECD) of human FGF-; HPC4 (C); made in house; host or cells: HEK 293-6E
T4 sequence (P22455 22-369 limits assumed): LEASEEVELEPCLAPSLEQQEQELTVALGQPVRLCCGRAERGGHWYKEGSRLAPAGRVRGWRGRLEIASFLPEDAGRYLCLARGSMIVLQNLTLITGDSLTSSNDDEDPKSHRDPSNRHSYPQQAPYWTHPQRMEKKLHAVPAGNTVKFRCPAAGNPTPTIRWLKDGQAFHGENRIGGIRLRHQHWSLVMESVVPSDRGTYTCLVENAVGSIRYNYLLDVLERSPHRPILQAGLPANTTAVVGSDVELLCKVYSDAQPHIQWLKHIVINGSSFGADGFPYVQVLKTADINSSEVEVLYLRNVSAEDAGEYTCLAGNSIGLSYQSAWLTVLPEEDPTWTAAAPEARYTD
How it was run: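 Biotinylated FGF-R ECD on streptavidin biosensors was dipped into ~1 μM crude peptide in PBS pH7.4 with 0.05% Tween-20 and 0.01% BSA for association, then into buffer for dissociation, and followed by BLI. Fitted KD values were adjusted for peptide concentration measured by UPLC-CAD.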

[5] = target: T4, FGF-R4 ECD; assay: multi-concentration BLI of purified peptides; format: binding
How it was run: (§1)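 Streptavidin biosensors carrying biotinylated FGF receptor ECD were immersed in peptide (~1 μM for crude single-point runs, a concentration series for purified peptides) and then in peptide-free buffer. KD was obtained by fitting the BLI association and dissociation curves.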

[6] = target: T5, FGF-R1C ECD (Homo sapiens, UniProt P11362); assay: biochemical; format: binding; set-up: DNA constructs for the extracellular domain (ECD) of human FGF-; HPC4 (C); made in house; host or cells: HEK 293-6E
T5 sequence (P11362 22-376 limits assumed): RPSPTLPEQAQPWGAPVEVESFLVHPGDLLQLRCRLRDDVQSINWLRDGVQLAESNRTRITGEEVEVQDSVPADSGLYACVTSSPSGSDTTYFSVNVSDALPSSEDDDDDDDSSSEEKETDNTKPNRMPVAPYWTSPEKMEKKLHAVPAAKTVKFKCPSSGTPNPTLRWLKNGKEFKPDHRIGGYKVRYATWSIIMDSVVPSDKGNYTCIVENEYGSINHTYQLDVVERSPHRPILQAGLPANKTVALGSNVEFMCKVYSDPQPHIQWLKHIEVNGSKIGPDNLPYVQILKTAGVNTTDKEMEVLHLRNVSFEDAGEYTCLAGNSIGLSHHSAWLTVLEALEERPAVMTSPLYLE
How it was run: as §1

[7] = target: T6, FGF-R3C ECD (Homo sapiens, UniProt P22607); assay: biochemical; format: binding; set-up: DNA constructs for the extracellular domain (ECD) of human FGF-; HPC4 (C); made in house; host or cells: HEK 293-6E
T6 sequence (P22607 23-375 limits assumed): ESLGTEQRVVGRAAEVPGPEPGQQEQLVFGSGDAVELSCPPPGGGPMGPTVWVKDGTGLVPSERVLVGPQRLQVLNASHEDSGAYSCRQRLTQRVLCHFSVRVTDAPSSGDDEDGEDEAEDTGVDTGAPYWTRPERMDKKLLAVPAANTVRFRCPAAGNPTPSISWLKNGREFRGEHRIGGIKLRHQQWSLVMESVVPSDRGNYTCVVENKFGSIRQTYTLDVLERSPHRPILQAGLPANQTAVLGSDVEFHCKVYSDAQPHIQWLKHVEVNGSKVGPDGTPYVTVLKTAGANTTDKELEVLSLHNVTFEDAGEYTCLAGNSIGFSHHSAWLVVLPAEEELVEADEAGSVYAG
How it was run: as §1

[8] = target: T5, FGF-R1C ECD; assay: biochemical
How it was run: as §1

[9] = target: T6, FGF-R3C ECD; assay: biochemical
How it was run: as §1

[10] = read-out: IC50 values for controls (FGF-R4), positive controls, Alphascreen vs biotinylated FGF21

IC50 [1]: 4 nM
IC50 [2, 10]: 7 nM
IC50 [3]: 3 nM
Molecule: FGF1: FGF1 used as positive control [reference compound]

Kd ([4]; crude NNK peptides, single concentration BLI (Table S3)): > 10000 nM
Kd ([5]; purified NNK library peptides): > 1000 nM
IC50 [2]: > 1000 nM
Molecule: CSCC[C@@H]1NC(=O)[C@H](CC(N)=O)NC(=O)[C@H](CO)NC(=O)[C@@H](NC(=O)[C@@H](N)CCSC)CSSC[C@@H](C(=O)NCC(=O)N[C@@H](CO)C(=O)NCC(=O)N[C@@H](CO)C(=O)N[C@@H](CC(=O)O)C(=O)N[C@@H](Cc2ccc(O)cc2)C(=O)N[C@@H](CCCCN)C(=O)N[C@@H](CC(=O)O)C(=O)N[C@@H](CC(=O)O)C(=O)N[C@@H](CC(=O)O)C(=O)N[C@@H](CC(=O)O)C(=O)N[C@@H](CCCCN)C(N)=O)NC(=O)[C@H](C)NC(=O)[C@H](Cc2c[nH]c3ccccc23)NC(=O)[C@H](Cc2c[nH]c3ccccc23)NC(=O)[C@H](CCCNC(=N)N)NC(=O)[C@H](CC(N)=O)NC(=O)[C@H](C)NC(=O)[C@H](CC(C)C)NC(=O)[C@H](CCCCN)NC(=O)[C@H](Cc2c[nH]c3ccccc23)NC1=O [1C.3]

Molecule: CSCC[C@H](NC(C)=O)C(=O)N[C@H]1CSSC[C@@H](C(=O)NCC(=O)N[C@@H](CO)C(=O)NCC(=O)N[C@@H](CO)C(=O)N[C@@H](CC(=O)O)C(=O)N[C@@H](Cc2ccc(O)cc2)C(=O)N[C@@H](CCCCN)C(=O)N[C@@H](CC(=O)O)C(=O)N[C@@H](CC(=O)O)C(=O)N[C@@H](CC(=O)O)C(=O)N[C@@H](CC(=O)O)C(=O)N[C@@H](CCCCN)C(N)=O)NC(=O)[C@H](C(C)C)NC(=O)[C@H](Cc2c[nH]c3ccccc23)NC(=O)[C@H](Cc2c[nH]c3ccccc23)NC(=O)[C@H](CC(C)C)NC(=O)[C@H](CCCCN)NC(=O)[C@H](Cc2c[nH]c3ccccc23)NC(=O)[C@H](CCCNC(=N)N)NC(=O)[C@H](Cc2ccc(O)cc2)NC(=O)[C@H](C)NC(=O)[C@H](CC(=O)O)NC(=O)[C@H](CO)NC(=O)[C@H](CCC(=O)O)NC1=O [4.12]
Kd ([4]; crude T18 selection 1 (1:1:1) peptides, single concentration BLI (Table S4)): 10 nM
Kd [6]: 1570 nM
Kd [7]: > 10000 nM
Kd ([5]; purified trimer-18 library peptides): 15 nM
Kd [8]: > 1000 nM
Kd [9]: > 1000 nM

IC50 [1]: 23 nM
IC50 [2, 10]: 674 nM
IC50 [3]: 20 nM
B1: FGF21: unlabelled FGF21, natural ligand used as positive control (protein, UniProt Q9NSA1 29-209, looked up)
Fibroblast growth factor 21: HPIPDSSPLLQFGGQVRQRYLYTDDAQQTEAHLEIREDGTVGGAADQSPESLLQLKALKPGVIQILGVKTSRFLCQRPDGALYGSLHFDPEACSFRELLLEDGYNVYQSEAHGLPLHLPGNKSPHRDPAPRGPARFLPLPGLPPALPEPPGILAPQPPDVGSSDPLSMVGPSQGRSPSYAS
